From PMC8119466, “A screen of FDA-approved drugs identifies inhibitors of protein tyrosine phosphatase 4A3 (PTP4A3 or PRL-3)” (Scientific Reports, 2021)
Where a name gives a salt, the structure may show the parent alone. Read-outs that look alike come from different tables or passages of the source.

Tests used:
Assay type in all cases: biochemical
recombinant PRL-1 = biological target: T1, recombinant PRL-1 (Homo sapiens, UniProt Q93096); assay: In vitro phosphatase assay (DiFMUP hydrolysis), PRL-1; further: test concentration or dose not given here
T1 construct: 6xHis (N, cleaved yes); made in house; host or cells: E. coli One Shot BL21 Star
T1 sequence (Q93096 1-173): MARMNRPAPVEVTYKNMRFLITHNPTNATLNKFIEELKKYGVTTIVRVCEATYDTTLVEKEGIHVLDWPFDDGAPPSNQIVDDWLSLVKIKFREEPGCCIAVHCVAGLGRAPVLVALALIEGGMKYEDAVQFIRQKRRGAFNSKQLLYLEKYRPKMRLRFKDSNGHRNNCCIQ

recombinant PRL-2 = biological target: T2, recombinant PRL-2 (Homo sapiens, UniProt Q12974); assay: In vitro phosphatase assay (DiFMUP hydrolysis), PRL-2;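 further: PRL-2 activity read as DiFMUP hydrolysis after 20 min at room temperature with drug, enzyme first pre-reduced at 4 °C for 20 min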
T2 construct: 6xHis (N, cleaved yes); made in house; host or cells: E. coli One Shot BL21 Star
T2 sequence (Q12974 1-167): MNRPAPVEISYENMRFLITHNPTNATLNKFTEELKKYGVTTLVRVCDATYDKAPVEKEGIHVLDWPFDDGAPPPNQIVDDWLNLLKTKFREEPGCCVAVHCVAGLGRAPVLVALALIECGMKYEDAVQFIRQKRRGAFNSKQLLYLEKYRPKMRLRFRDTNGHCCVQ

recombinant PRL-3 = biological target: T3, recombinant PRL-3 (Homo sapiens, UniProt O75365); assay: In vitro phosphatase assay (DiFMUP hydrolysis), PRL-3; further: test concentration or dose not given here
T3 construct: 6xHis (N, cleaved yes); made in house; host or cells: E. coli One Shot BL21 Star
T3 sequence (O75365 whole entry): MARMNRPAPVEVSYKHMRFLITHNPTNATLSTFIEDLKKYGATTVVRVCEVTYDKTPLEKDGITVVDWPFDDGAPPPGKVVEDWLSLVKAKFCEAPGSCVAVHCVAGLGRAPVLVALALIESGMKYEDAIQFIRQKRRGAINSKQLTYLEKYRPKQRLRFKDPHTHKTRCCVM

[1] = FDA-approved drug screen, compared to DMSO

SMILES | % Phosphatase Activity (compared to DMSO) PRL-1 (recombinant PRL-1; [1]) [%] | % Phosphatase Activity (compared to DMSO) PRL-2 (recombinant PRL-2; [1]) [%] | % Phosphatase Activity (compared to DMSO) PRL-3 (recombinant PRL-3; [1]) [%] | % Phosphatase Activity (compared to DMSO) PRL-1 (recombinant PRL-1) [%] | % Phosphatase Activity (compared to DMSO) PRL-2 (recombinant PRL-2) [%] | % Phosphatase Activity (compared to DMSO) PRL-3 (recombinant PRL-3) [%]
COc1ccc(CN=c2[nH]c(N3CCC[C@H]3CO)ncc2C(=O)NCc2ncccn2)cc1Cl [Avanafil] | 98 | 112 | 97 | – | – | –
COc1ccc(C(=O)CC(=O)c2ccc(C(C)(C)C)cc2)cc1 [Avobenzone] | 93 | 68 | 87 | – | – | –
CNC(=O)c1ccccc1Sc1ccc2c(/C=C/c3ccccn3)n[nH]c2c1 [Axitinib] | 102 | 164 | 96 | – | – | –
Nc1ncn([C@@H]2O[C@H](CO)[C@@H](O)[C@H]2O)c(=O)n1 [Azacitidine] | 78 | 93 | 89 | – | – | –
OC(c1ccccc1)(c1ccccc1)C1CCNCC1 [Azacyclonol] | 109 | 127 | 96 | – | – | –
O=C(CCCN1CCN(c2ccccn2)CC1)c1ccc(F)cc1 [Azaperone] | 96 | 96 | 88 | – | – | –
CN1CCC(=C2c3ccccc3CCc3cccnc32)CC1 [Azatadine dimaleate] | 103 | 108 | 84 | – | – | –
Cn1cnc([N+](=O)[O-])c1Sc1ncnc2nc[nH]c12 [Azathioprine] | – | – | – | 96 | 107 | 74
O=C(O)CCCCCCCC(=O)O [Azelaic acid] | 94 | 98 | 95 | – | – | –
CN1CCCC(n2nc(Cc3ccc(Cl)cc3)c3ccccc3c2=O)CC1 (stereo not drawn) [Azelastine HCl] | 121 | 113 | 87 | – | – | –
CC1=C(C(=O)OC(C)C)C(c2cccc([N+](=O)[O-])c2)C(C(=O)OC2CN(C(c3ccccc3)c3ccccc3)C2)=C(N)N1 (stereo not drawn) [Azelnidipine] | 93 | 99 | 95 | – | – | –
CCOc1nc2cccc(C(=O)OCc3oc(=O)oc3C)c2n1Cc1ccc(-c2ccccc2-c2noc(=O)[nH]2)cc1 [Azilsartan Medoxomil] | 91 | 96 | 90 | – | – | –
CCOc1nc2cccc(C(=O)O)c2n1Cc1ccc(-c2ccccc2-c2nc(=O)o[nH]2)cc1 [Azilsartan] | 111 | 130 | 101 | – | – | –
CC[C@H]1OC(=O)[C@H](C)[C@@H](O[C@H]2C[C@@](C)(OC)[C@@H](O)[C@H](C)O2)[C@H](C)[C@@H](O[C@@H]2O[C@H](C)C[C@H](N(C)C)[C@H]2O)[C@](C)(O)C[C@@H](C)CN(C)[C@H](C)[C@@H](O)[C@]1(C)O [Azithromycin Dihydrate] | 98 | 99 | 73 | – | – | –
CC[C@H]1OC(=O)[C@H](C)[C@@H](O[C@H]2C[C@@](C)(OC)[C@@H](O)[C@H](C)O2)[C@H](C)[C@@H](O[C@@H]2O[C@H](C)C[C@H](N(C)C)[C@H]2O)[C@](C)(O)C[C@@H](C)CN(C)[C@H](C)[C@@H](O)[C@]1(C)O [Azithromycin] | 94 | 94 | 101 | – | – | –
CC1(C)S[C@@H]2[C@H](NC(=O)[C@H](NC(=O)N3CCNC3=O)c3ccccc3)C(=O)N2[C@H]1C(=O)O [Azlocillin sodium salt] | 100 | 112 | 85 | – | – | –
C[C@H]1[C@H](NC(=O)/C(=N\OC(C)(C)C(=O)O)c2csc(N)n2)C(=O)N1S(=O)(=O)O [Aztreonam] | 97 | 88 | 76 | – | – | –
CCc1cc(/C(C)=N/OCc2ccc(C3CCCCC3)c(C(F)(F)F)c2)ccc1CN1CC(C(=O)O)C1 [BAF312 (Siponimod)] | 99 | 87 | 101 | – | – | –
Cc1ccc(-n2nc(C(C)(C)C)cc2NC(=O)Nc2ccc(OCCN3CCOCC3)c3ccccc23)cc1 [BIRB 796 (Doramapimod)] | 108 | 106 | 98 | – | – | –
